Source: patent US20060122279A1, “Hydrophobic polyamine amides as potent lipopolysaccharide sequestrants” (priority 2004, published 2006)
Several values for one entry are separate records, joined by “and”; a condition that tells them apart may be missing. Equal values may be shown once. Read-outs that look alike come from different tables or passages of the source.

Legend:
CF-1 mice = conditions: previous studies (ref. 37); cited from earlier work
[1] = format: binding, E. coli 0111:B4; conditions: E. coli 0111:B4 LPS; Tables 1-3; read-out: ED50 (half-maximal effective displacement of BC probe from LPS)
Description: Polymyxin B (PMB), a peptide antibiotic known to bind and neutralize LPS^47 serves as the positive control and reference compound for every plate, enabling the quantitative assessment of repeatability and reproducibility (CV and Z′ factors) for the assay. Robotic liquid handling is performed on a Precision 2000 automated microplate pipetting system, programmed using the Precision Power software, Bio-Tek Instruments Inc., VT, USA. Stock solutions of LPS (5 mg/ml; E. coli 0111:B4; procured from Sigma) and BC (500 μM) are prepared in Tris buffer (pH 7.4, 50 mM). 1 ml each of the LPS and BC stocks are mixed and diluted in Tris buffer to a final volume of 100 ml, yielding final concentrations of 50 μg/ml of LPS and 5 μM BC. 40 μl of this BC:LPS mixture is added to each well of the plate using the Precision 2000. Fluorescence measurements are made at 25° C. on a Fluoromax-3 with Micromax Microwell 384-well plate reader, using DataMax software, Jobin Yvon Inc., N.J. The BC excitation wavelength is 580 nm, emission spectra are taken at 620 nm with both emission and excitation monochromator bandpasses set at 5 nm.

NFκB = NFκB inhibition (LPS-induced); format: cell-based; conditions: for IC50: Table 7 focused library, NFκB inhibition, read-out: NFκ B
From the text: A focused library of alkyl or acyl c-substituted lysine-spermine conjugates is synthesized with even carbon-numbered chains of C14 to C20 lengths. […] Furthermore, the data showhigh activity compounds are those with chain lengths between C16 and C20. […] The exemplary compounds L-Lys-ε-(stearoyl)-N^1-spermine, D-Lys-ε-(stearoyl)-N^1-spermine, L-Lys-ε-(octadecanyl)-N^1-spermine and D-Lys-ε-(octadecanyl)—N1-spermine all show high activity for the prevention of LPS-induced NFκβ cytokine release from stimulated lymphocytes. Furthermore, the exemplary compounds L-Lys-ε-(stearoyl)-N^1-spermine, D-Lys-ε-(stearoyl)-N^1-spermine, L-Lys-ε-(octadecanyl)-N^1-spermine and D-Lys-ε-(octadecanyl)-N^1-spermine all show high activity for the prevention of LPS-induced NO release from stimulated lymphocytes.

[2] = tested on: murine macrophage J774.A1 cells; experiment: Nitric oxide (NO) inhibition in LPS-stimulated J774.A1 cells (Griess); format: cell-based
Description: Murine monocytes (J774.A1 cells) produce measurable quantities of NO on exposure to LPS and provide a model for the rapid assessment of compounds to neutralize LPS activity. […] In all experiments, Polymyxin B (PMB), a decapeptide antibiotic, known to bind and neutralize LPS,^29;47;48 is used as a reference compound.
Nitric oxide production is measured as total nitrite in murine macrophage J774.A1 cells using the Griess reagent system.^53;54 Murine macrophage J774.A1 cells are grown in RPMI-1640 cell-culture medium containing L-glutamine and sodium bicarbonate and supplemented with 10% fetal bovine serum, 1% L-glutamine-penicillin-streptomycin solution, and 200 μg/ml L-arginine at 37° C. in a 5% CO2 atmosphere. Cells are plated at ˜2×10^6/ml in a volume of 40 μl/well, in 384 well, flat-bottomed, cell culture treated microtiter plates until confluency and subsequently stimulated with 100 ng/ml lipopolysaccharide (LPS). Concurrent to LPS stimulation, serially diluted concentrations of test compounds are added to the cell medium and left to incubate overnight for 16 h. Polymyxin B is used as reference compound in each plate. Positive—(LPS stimulation only) and negative-controls (J774.A1 medium only) are included in each experiment. Nitrite concentrations are measured adding 30 μl of supernatant to equal volumes of Griess reagents (50 μl/well; 0.1% NED solution in ddH2O and 1% sulfanilamide, 5% phosphoric acid solution in ddH2O) and incubating for 15 minutes at room temperature in the dark. Absorbance at 535 nm is measured using a Molecular Devices Spectramax M2 multifunction plate reader (Sunnyvale, Calif.). Nitrite concentrations are interpolated from standard curves obtained from serially diluted sodium nitrite standards.

[3] = J774.A1 cells, 100 ng/ml LPS, 16 h, Tables 1-3, read-out: NO IC50
[4] = Mus musculus, J774.A1, 16 h, J774.A1 cells, 100 ng/ml LPS, 16 h, Tables 1-3, read-out: NO IC50
[5] = Mus musculus, J774.A1, Table 7 focused library, NO inhibition, read-out: NO

SMILES | window of protection (CF-1 mice) [min] | EC50 [1] | IC50 (NFκB) [µM] | IC50 [2, 3] [µM] | IC50 [2, 4] [µM] | IC50 [2, 5] [µM] | prevention of LPS-induced NFκβ cytokine release from stimulated lymphocytes (NFκB; in words) | prevention of LPS-induced NO release from J774.A1 macrophages ([2]; in words) | IC50 ([2]; read-out: NO IC50, J774.A1 cells, 100 ng/ml LPS, 16 h, Tables 1-3) [µM]
CCCCCCCC/C=C\CCCCCCCC(=O)OCC(COC(=O)CCCCCCC/C=C\CCCCCCCC)NC(=O)C(CCCNCCCN)NCCCN (stereo not drawn) [DOSPER] | 15 |  |  |  |  |  |  |  | 
CCCCCCCCCCCCCCCCCCCC(=O)NCCCCC(N)C(=O)NCCCNCCCCNCCCN [Compound 7, L-Lys-ε-(eicosanoyl)-N^1-spermine] |  | 6.46 µM | 1.24 | 1.21 | 1.2 | 4.69 |  |  | 
CCCCCCCCCCCCCCCCCC(=O)NCCCCC(N)C(=O)NCCCNCCCCNCCCN [Compound 9, L-Lys-ε-(stearoyl)-N^1-spermine] |  | 16 µM and 16.4 µM | 0.736 | 18.1 |  | 8.78 | high activity | high activity | 
CCCCCCCCCCCCCC(=O)NCCCCC(N)C(=O)NCCCNCCCCNCCCN [Compound 16, L-Lys-ε-(myristoyl)-N^1-spermine] |  | 5.63 µM | 0.753 |  | 1.6 | 22.2 |  |  | 
CCCCCCCCCCCCCCCC(=O)NCCCCC(N)C(=O)NCCCNCCCCNCCCN [Compound 14, L-Lys(palmitoyl)-N^1-spermine] |  | 11 µM and 10.7 µM | 0.819 | 6.41 |  | 16.8 |  |  | 6.4
